Experimental data taken from patent US12312337B2, “Compounds and methods for treating cancer” (ANTIDOTE IP HOLDINGS, LLC, priority 2019, dated 2025).
pIC50, pKd: −log10 of the molar value.

Experiments:
[1] = molecular target: T1, human AhR (Homo sapiens, UniProt P35869); test: INDIGO AhR Reporter Assay (luciferase reporter cells, antagonist mode); assay type: cell-based; conditions: antagonist mode with 50 nM of VAF347 (AhR agonist); 22-24 hours incubation; luciferase RLU
T1 construct: INDIGO's Aryl Hydrocarbon Receptor (AhR) Reporter Cells include the luciferase reporter gene functionally linked to an AhR-responsive promoter
T1 sequence (P35869 11-848): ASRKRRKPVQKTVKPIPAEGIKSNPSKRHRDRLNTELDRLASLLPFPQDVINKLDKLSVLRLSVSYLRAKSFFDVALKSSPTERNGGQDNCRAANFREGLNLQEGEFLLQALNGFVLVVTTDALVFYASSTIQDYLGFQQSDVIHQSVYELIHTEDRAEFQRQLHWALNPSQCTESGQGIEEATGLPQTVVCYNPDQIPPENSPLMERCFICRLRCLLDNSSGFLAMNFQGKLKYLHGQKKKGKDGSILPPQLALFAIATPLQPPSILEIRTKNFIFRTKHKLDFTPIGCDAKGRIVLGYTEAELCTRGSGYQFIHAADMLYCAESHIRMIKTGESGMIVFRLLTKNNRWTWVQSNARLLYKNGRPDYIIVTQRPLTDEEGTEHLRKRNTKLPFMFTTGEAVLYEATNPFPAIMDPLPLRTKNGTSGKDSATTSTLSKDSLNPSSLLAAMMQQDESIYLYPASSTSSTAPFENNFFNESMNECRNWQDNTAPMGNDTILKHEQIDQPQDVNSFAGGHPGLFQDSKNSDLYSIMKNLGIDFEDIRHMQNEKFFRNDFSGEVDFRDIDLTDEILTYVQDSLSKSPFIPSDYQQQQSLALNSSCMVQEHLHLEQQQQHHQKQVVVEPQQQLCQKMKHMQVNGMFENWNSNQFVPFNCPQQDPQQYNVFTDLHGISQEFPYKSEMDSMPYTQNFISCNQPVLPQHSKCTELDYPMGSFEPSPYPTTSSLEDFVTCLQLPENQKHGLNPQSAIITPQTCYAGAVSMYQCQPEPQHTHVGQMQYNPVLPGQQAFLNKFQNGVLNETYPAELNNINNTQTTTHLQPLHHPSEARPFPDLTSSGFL
Excerpt: INDIGO's Aryl Hydrocarbon Receptor (AhR) Reporter Cells include the luciferase reporter gene functionally linked to an AhR-responsive promoter. Thus, quantifying changes in luciferase expression in the treated reporter cells provides a sensitive surrogate measure of the changes in AhR activity. The principle application of this reporter assay is in the screening of test samples to quantify any functional activity, either agonist or antagonist, that they may exert against human AhR. Reporter Cells incorporate the cDNA encoding beetle luciferase, a 62 kD protein originating from the North American firefly (Photinus pyralis). Luciferase catalyzes the mono-oxidation of D-luciferin in a Mg^2+-dependent reaction that consumes 02 and ATP as co-substrates, and yields as products oxyluciferin, AMP, PPi, CO2, and photon emission. Luminescence intensity of the reaction is quantified using a luminometer, and is reported in terms of Relative Light Units (RLU's). In brief, 200 μl of Reporter Cells was dispensed into wells of the assay plate and pre-incubated for 4-6 hours. Following the pre-incubation period, culture media were discarded and 200 µl/well of the prepared 1×-concentration treatment media were added. Following 22-24 hours of incubation, treatment media were discarded and Luciferase Detection Reagent was added. The intensity of light emission (in units of “Relative Light Units” (RLU)) from each assay well was quantified using a plate-reading luminometer. The assay was run as a competitive binding assay in the antagonist mode with 50 nM of VAF347, a known AhR agonist.
In Table 4, IC50 values are reported as A, B, C, or D. A represents an IC50 value of less than 100 nM. B represents an IC50 value of equal or greater than 100 nM and less than 500 nM. C represents an IC50 value of equal or greater than 500 nM and less than 1 μM. D represents an IC50 value of equal or greater than 1 μM.

[2] = test system: AhR; conditions: binding to the AhR; acts as an agonist; read-out: apparent Kd; cited from earlier work

pIC50 [1]	SMILES	pKd [2]
6.30 to 7.00	Cn1nc(C(F)(F)F)cc1NC(=O)c1ccc2cc(-c3ccncc3)cnc2c1 [Compound 78, N-[1-methyl-3-(trifluoromethyl)-1-pyrazol-yl]-3-(pyridin-4-yl)quinoline-7-carboxamide]	–
< 6.00	O=C(Nc1ccc(C(F)(F)F)nc1)c1ccc2c(N3CCOCC3)ccnc2c1 [Compound 80, 4-morpholino-N-(6-(trifluoromethyl)pyridin-3-yl)quinoline-7-carboxamide]	–
6.30 to 7.00	Cc1ccccc1-c1cnc2cc(C(=O)Nc3ccc(C(F)(F)F)nc3)ccc2c1 [Compound 81, 3-(o-tolyl)-N-(6-(trifluoromethyl)pyridin-3-yl)quinoline-7-carboxamide]	–
6.00 to 6.30	O=C(Nc1ccc(C(F)(F)F)nc1)c1ccc2cc(-c3nccs3)cnc2c1 [Compound 83, 3-(thiazol-2-yl)-N-(6-(trifluoromethyl)pyridin-3-yl)quinoline-7-carboxamide]	–
6.00 to 6.30	Cn1cc(-c2ccccc2)nc1NC(=O)c1cc2ncccc2cc1Cl [Compound 90, 6-chloro-N-(1-methyl-4-phenyl-1H-imidazol-2-yl)quinoline-7-carboxamide]	–
> 7.00	Cn1nc(C(F)(F)F)cc1NC(=O)c1ccc2cc(-c3nccs3)cnc2c1 [Compound 93, N-(1-methyl-3-(trifluoromethyl)-1H-pyrazol-5-yl)-3-(thiazol-2-yl)quinoline-7-carboxamide]	–
> 7.00	Cc1ccccc1-c1cc(NC(=O)c2ccc3cc(-c4ccc(F)cc4)cnc3c2)n(C)n1 [Compound 95, 3-(4-fluorophenyl)-N-(1-methyl-3-(o-tolyl)-1H-pyrazol-5-yl)quinoline-7-carboxamide]	–
> 7.00	Cc1ccccc1-c1cc(NC(=O)c2ccc3cc(-c4ccc(F)cc4F)cnc3c2)n(C)n1 [Compound 96, 3-(2,4-difluorophenyl)-N-(1-methyl-3-(o-tolyl)-1H-pyrazol-5-yl)quinoline-7-carboxamide]	–
> 7.00	Cc1ccccc1-c1cc(NC(=O)c2ccc3cc(-c4cccs4)cnc3c2)n(C)n1 [Compound 97, N-(1-methyl-3-(o-tolyl)-1H-pyrazol-5-yl)-3-(thiophen-2-yl)quinoline-7-carboxamide]	–
6.30 to 7.00	Cn1nc(C(F)(F)F)cc1NC(=O)c1ccc2cc(-c3ccncc3F)cnc2c1 [Compound 98, 3-(3-fluoropyridin-4-yl)-N-[1-methyl-3-(trifluoromethyl)-1H-pyrazol-5-yl]quinoline-7-carboxamide]	–
< 6.00	CC(C)Oc1ccnc2cc(C(=O)Nc3cc(C(F)(F)F)nn3C)ccc12 [Compound 99, 4-Isopropoxy-N-[1-methyl-3-(trifluoromethyl)-1H-pyrazol-5-yl]quinoline-7-carboxamide]	–
> 7.00	Cn1nc(C(F)(F)F)cc1NC(=O)c1ccc2cc(-c3ccccn3)cnc2c1 [Compound 100, N-(1-methyl-3-(trifluoromethyl)-1H-pyrazol-5-yl)-3-(pyridine-2-yl)quinoline-7-carboxamide]	–
> 7.00	Cn1nc(C(F)(F)F)cc1NC(=O)c1ccc2cc(-c3ccc(F)cn3)cnc2c1 [Compound 101, 3-(5-fluoropyridin-2-yl)-N-(1-methyl-3-(trifluoromethyl)-1H-pyrazol-5-yl)quinoline-7-carboxamide]	–
> 7.00	Cn1nc(C(F)(F)F)cc1NC(=O)c1ccc2cc(-c3ncc(F)cn3)cnc2c1 [Compound 123, 3-(5-fluoropyrimidin-2-yl)-N-[1-methyl-3-(trifluoromethyl)-1H-pyrazol-5-yl]quinoline-7-carboxamide]	–
> 7.00	Cn1nc(C(F)(F)F)cc1NC(=O)c1ccc2cc(-c3ncc(F)cc3F)cnc2c1 [Compound 124, 3-(3,5-difluoropyridin-2-yl)-N-[l-methyl-3-(trifluoromethyl)-1H-pyrazol-5-yl]quinoline-7-carboxamide]	–
6.30 to 7.00	Cn1nc(-c2ccccc2)cc1NC(=O)c1ccc2cc(-c3ccncc3F)cnc2c1 [Compound 125, 3-(3-fluoropyridin-4-yl)-N-(1-methyl-3-phenyl-1H-pyrazol-5-yl) quinoline-7-carboxamide]	–
> 7.00	Cn1nc(-c2ccccc2)cc1NC(=O)c1ccc2cc(-c3ccc(F)cn3)cnc2c1 [Compound 128, 3-(5-fluoropyridin-2-yl)-N-(1-methyl-3-phenyl-1H-pyrazol-5-yl) quinoline-7-carboxamide]	–
6.30 to 7.00	CCN(CC)S(=O)(=O)c1cc(NC(=O)c2cc3cc(-c4ccc(F)cc4)cnc3s2)ccc1Cl [Compound 141, N-[4-chloro-3-(N,N-diethylsulfamoyl)phenyl]-5-(4-fluorophenyl)-thieno[2,3-b]pyridine-2-carboxamide]	–
6.30 to 7.00	CCN(CC)S(=O)(=O)c1cc(NC(=O)c2cc3cc(-c4ccncc4)cnc3s2)ccc1Cl [Compound 142, N-[4-chloro-3-(N,N-diethylsulfamoyl)phenyl]-5-(pyridin-4-yl)-thieno[2,3-b]pyridine-2-carboxamide]	–
6.00 to 6.30	CCN(CC)S(=O)(=O)c1cc(NC(=O)c2cc3cc(-c4ccccn4)cnc3s2)ccc1Cl [Compound 144, N-[4-chloro-3-(N,N-diethylsulfamoyl)phenyl]-5-(pyridin-2-yl)-thieno[2,3-b]pyridine-2-carboxamide]	–
6.30 to 7.00	CCN(CC)S(=O)(=O)c1cc(NC(=O)c2cc3cc(-c4ccncc4F)cnc3s2)ccc1Cl [Compound 145, N-[4-chloro-3-(N,N-diethylsulfamoyl)phenyl]-5-(3-fluoropyridin-4-yl)-thieno[2,3-b]pyridine-2-carboxamide]	–
6.30 to 7.00	CN(C)S(=O)(=O)c1cc(NC(=O)c2cc3cc(-c4ccc(F)cc4)cnc3s2)ccc1Cl [Compound 148, N-[4-chloro-3-(N,N-dimethylsulfamoyl)phenyl]-5-(4-fluorophenyl)-thieno[2,3-b]pyridine-2-carboxamide]	–
< 6.00	CCN(CC)S(=O)(=O)c1cc(NC(=O)c2cc3cc(-c4ccc(F)cn4)cnc3s2)ccc1Cl [Compound 151, N-[4-chloro-3-(N,N-diethylsulfamoyl)phenyl]-5-(5-fluoropyridin-2-yl)-thieno[2,3-b]pyridine-2-carboxamide]	–
6.00 to 6.30	CN(C)S(=O)(=O)c1cc(NC(=O)c2cc3cc(-c4ccncc4F)cnc3s2)ccc1Cl [Compound 153, N-[4-chloro-3-(N,N-dimethylsulfamoyl)phenyl]-5-(3-fluoropyridin-4-yl)-thieno[2,3-b]pyridine-2-carboxamide]	–
6.00 to 6.30	CN1CCN(S(=O)(=O)c2cc(NC(=O)c3ccc4c(c3)NC(=O)CO4)ccc2Cl)CC1 [Compound 172]	–
–	Nc1ccccc1C(=O)CC(N)C(=O)O (centres unmarked) [Kynurenine]	~5.40
